Source: publication PMC4337230 (The journal of physical chemistry. B, 2010)

Target: T1, Lysine 2,3-aminomutase (LAM) (Clostridium subterminale, UniProt Q9XBQ8)
T1 sequence (Q9XBQ8 1-416): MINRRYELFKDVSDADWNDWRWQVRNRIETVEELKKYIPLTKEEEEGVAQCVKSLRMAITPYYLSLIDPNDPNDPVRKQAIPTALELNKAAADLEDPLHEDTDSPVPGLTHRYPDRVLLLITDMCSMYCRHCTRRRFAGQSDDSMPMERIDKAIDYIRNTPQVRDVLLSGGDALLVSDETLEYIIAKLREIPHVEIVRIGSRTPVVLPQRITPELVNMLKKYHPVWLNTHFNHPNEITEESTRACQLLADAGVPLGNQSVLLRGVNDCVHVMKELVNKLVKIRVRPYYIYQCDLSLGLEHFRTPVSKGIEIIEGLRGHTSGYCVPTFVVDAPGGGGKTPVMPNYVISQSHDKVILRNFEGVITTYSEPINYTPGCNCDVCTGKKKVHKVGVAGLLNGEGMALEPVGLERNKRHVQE
Assay: activation of L-alanine […],3-aminomutation, PITC-HPLC
Assay type: biochemical
Conditions: 200000 µM; activator; 0.2 M L-alanine, 0.16 mM SAM, pH 8.0, 37 °C, anaerobic

## CN [methylamine]
  fold acceleration at 0.2 M: 27 fold
